The record followed here is US20240315992A1, “AMINOXY ACID-BASED ANTIBACTERIAL COMPOUNDS AND METHODS THEREOF” (The University of Hong Kong, priority 2023, published 2024).

For data set [1], the system named is MSSA ATCC 29213. Kind of data set: MIC by CLSI broth micro-dilution, MSSA ATCC 29213. It is filed as cell-based. Particulars: Staphylococcus aureus, read-out: Minimum inhibitory concentration. On the procedure:
Aminoxy acids were synthesized by the standard peptide coupling procedures. Minimum inhibitory concentration was determined using CLSI broth micro-dilution method in 96-wells microtitre plates. Minimum inhibitory concentration is defined as the lowest concentration of the compound that inhibits visible growth of the bacteria. All experiments were performed three times. 24 compounds including aminoxy acid monomers and dipeptides have been identified to show toxicity against multidrug resistant Staphylococcus aureus Mu3 and summarized in Table 1. The minimum inhibitory concentration of compound 8 and compound 35 on other gram-positive bacteria was also evaluated and summarized in Table 2. […] As shown in FIGS. 3A-3B there are no observable hemolysis for compound 8 and compound 35 towards human red blood cell.
Bacteria were streaked from the glycerol stock into BHI agar and were incubated overnight. Single colony was picked for the overnight culture in cation-adjusted Mueller Hinton broth (CAMH), LB or BHI. The overnight culture was sub-cultured and regrew to exponential phase for the experiment.
MIC was determined by CLSI broth micro-dilution method in 96-wells microtitre plates. […] Optical density was recorded by DTX 880 multimode detector (Beckman Coulter, California, US). […]

In data set [2] the test system is MIHA. Kind of data set: Mammalian cell cytotoxicity assay (MTT), MIHA. In kind it is cell-based. Conditions: at 16 folded MIC (50 μM compound 8, 12.5 μM compound 35). On the procedure:
FIGS. 2A-2B are the bar graphs showing the cytotoxicity of compound 8 (FIG. 2A) and compound 35 (FIG. 2B) towards mammalian cell NIH3T3, MDCK and MIHA. % survival is mean±S.D normalized to DMSO as the negative control of a representative experiment. Biological triplicates were conducted.
In the treated culture dish, cells were washed by PBS and then trypsinized. DMEM was added to quench the reaction. Cells were centrifuged and resuspended into fresh DMEM. Cells were then seeded in 96-well microtitre plate (100 μL, 5000 cells per well) for 24 hours before addition of compounds. The compounds were two-fold serial diluted by DMSO in a DMSO-compatible 96-well plate. 1 μL of compound in DMSO is transferred into the 96-well microtitre preparation plate containing 100 μL DMEM medium. The medium in culture plate was removed and compounds in preparation plate were transferred to culture plate. Equal volume of DMSO was used as negative control.
After 24 hours of incubation of cells, cell viability was measured by MTT assay. In MTT assay, 20 μL 5 mg/mL MTT solution in PBS was added to cell medium and cultured for 3 hours. The medium was then removed and 50 μL DMSO was added and cultured for 10 minutes. Absorbance at 595 nm was measured spectrophotometrically (Beckman Coulter DTX 880 Multimode Detector) and normalized to DMSO group. Biological replicates were performed.

For data set [3], the system named is MRSA Mu3 cell membrane potential. Kind of data set: Membrane potential monitored by DiSC3(5). It is filed as cell-based, Staphylococcus aureus. On the procedure: FIG. 11 is a line graph showing compound 8 can depolarize Staphylococcus aureus cell membrane under sub-inhibitory concentration and hyperpolarize Staphylococcus aureus cell membrane under inhibitory concentration. Membrane potential was monitored by DiSc3(5) over time (s). Extracellular buffer contained 10 mM HEPEs buffer, 5 mM glucose and 100 mM NaCl, pH 7.1. At t=100 s, 6 μL different concentration of compound 8 and 10 mM valinomycin (Vln) were added to 594 μL MRSA Mu3 pre-incubated with 0.4 μM DiSC3(5). The fluorescence signal was further monitored for 500 s. Data represented the mean±S.D. of technical triplicates.
Typically, an overnight culture of MRSA Mu3 was sub-cultured 1:100 in fresh CAMH and regrown to exponential phase. The bacteria were harvested (3,000×g, 5 min), washed, and re-suspended in a solution with 10 mM HEPEs buffer, 5 mM glucose and 100 mM KCl or 100 mM NaCl (pH 7.2). The bacteria were diluted to OD595 0.3 with the same buffer. […] Bacteria were incubated in darkness for 20 minutes or until fluorescence signal become stable. Fluorescence signal was recorded using Hitachi F-4500 Florescence Spectrometer. In a 1 mL cuvette, 594 μL bacteria incubated with DiSC3(5) were added and the fluorescence was monitored for 100 s. […] The fluorescence was monitored for further 500 s. […]

In brackets after ≈: the same amount, converted by molar mass.

On to `CC(C)C[C@H](ONC(=O)[C@@H](COCc1ccccc1)ONC(=O)c1cc(C(F)(F)F)cc(C(F)(F)F)c1)C(=O)Nc1ccccc1` [Compound 8], for which the MIC in data set [1] amounted to 3.13 µM (≈ 2.05 µg/mL). The “toxicity against mammalian cell MIHA” value in data set [2] was “minimal toxicity”. Further, the “cell membrane potential under inhibitory concentration” value in data set [3] (inhibitory concentration) is given as “hyperpolarize”. Further, the “cell membrane potential under sub-inhibitory concentration” value in data set [3] (sub-inhibitory concentration) is “depolarize”.
`CC(C)C[C@H](ONC(=O)[C@@H](COCc1ccccc1)ONC(=O)c1cc(C(F)(F)F)cc(C(F)(F)F)c1)C(=O)Nc1ccc2c(c1)OC(F)(F)O2` [Compound 35]: in data set [1], the MIC is 1.56 µM (≈ 1.15 µg/mL). Further, in data set [2], the “toxicity against mammalian cell MIHA” value is on record as “minimal toxicity”.
